Consider 4 compounds from ChEMBL document CHEMBL1201862, “PubChem BioAssay data set” (2004).

A short description of assay [1]: Luminescence-based cell-based high throughput dose response assay to identify activators of the DAF-12 from the parasite S. stercoralis (ssDAF-12). The format is functional.
Assay [2] has as its target Oxysterols receptor LXR-beta (Homo sapiens, UniProt P55055). Description: LXR agonists, Gal4 luciferase reporter, dose response, counter-screen for ssDAF-12 agonist project, cell-based, luminescence, HEK293, S. stercoralis campaign (AID 720737). The format is functional. Particulars: read-out: IC50 (the source's name). A general note: Reporter assays use an easily measured gene product as a stand-in for the process of interest.

The target in assay [3] is T1, Streptokinase A (Streptococcus pyogenes serotype M1, UniProt P10520).
T1 sequence (P10520 whole entry): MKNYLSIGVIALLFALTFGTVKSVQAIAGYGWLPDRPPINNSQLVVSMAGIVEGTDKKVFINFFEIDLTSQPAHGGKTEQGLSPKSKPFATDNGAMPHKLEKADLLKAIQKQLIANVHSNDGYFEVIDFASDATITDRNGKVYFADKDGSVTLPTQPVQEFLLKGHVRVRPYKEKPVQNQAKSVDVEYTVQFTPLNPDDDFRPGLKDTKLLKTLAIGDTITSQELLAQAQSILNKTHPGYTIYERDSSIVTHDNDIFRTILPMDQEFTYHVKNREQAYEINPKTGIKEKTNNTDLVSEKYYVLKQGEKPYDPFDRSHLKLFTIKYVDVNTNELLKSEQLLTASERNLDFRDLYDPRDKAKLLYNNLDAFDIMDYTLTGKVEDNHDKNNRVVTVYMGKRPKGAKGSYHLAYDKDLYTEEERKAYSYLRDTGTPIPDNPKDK
Description: S. pyogenes streptokinase expression inhibitors, potency, dose response, plasminogen activation absorbance, OD405 (AID 1914).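 Further: secreted streptokinase activity via plasminogen activation per viability signal from cell pellet.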 It is filed as functional, Streptococcus pyogenes M1 GAS.

Assay [4] in a line: HEK293T cell cytotoxicity, dose response, cytotoxicity control, CellTiter-Glo luminescence, dry powder, set 2 (AID 720595). It is filed as functional, cell-based. Particulars: HEK293. Background: ATP-based viability assays read luminescence as a measure of living cells.
Assay [5] can be described thus: AlphaScreen signal interference by compounds, dose response, artefact control for ARNT/TACC3 disruptor project, biochemical, dual-tagged ARNT, dry powder (AID 720564). A general note: In Alpha technology, singlet oxygen from a donor bead excites a nearby acceptor bead.
Assay [6] is described as follows: HepG2 hepatoma cell cytotoxicity, dose response, cytotoxicity control, CellTiter-Glo luminescence, dry powder, set 3 (AID 720594). It is filed as functional, cell-based.
Assay [7] concerns Streptococcus. Description: Group A Streptococcus viability loss, dose response, counter-screen for streptokinase expression inhibitor project, luminescence, BacTiterGlo (AID 1915).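 Further: potency for reduction of bacterial viability or growth.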 The format is functional, organism-based.
Assay [8] deals with Streptococcus sp. 'group A'. Description: growth inhibition of control SK(-) GAS strain, dose response, counter-screen for streptokinase expression inhibitor project, luminescence, kanamycin, BacTiterGlo, confirmation (AID 1900). The format is functional, organism-based.
Assay [9] deals with T2, Orexin/Hypocretin receptor type 1 (Homo sapiens, UniProt O43613).
T2 sequence (O43613 whole entry): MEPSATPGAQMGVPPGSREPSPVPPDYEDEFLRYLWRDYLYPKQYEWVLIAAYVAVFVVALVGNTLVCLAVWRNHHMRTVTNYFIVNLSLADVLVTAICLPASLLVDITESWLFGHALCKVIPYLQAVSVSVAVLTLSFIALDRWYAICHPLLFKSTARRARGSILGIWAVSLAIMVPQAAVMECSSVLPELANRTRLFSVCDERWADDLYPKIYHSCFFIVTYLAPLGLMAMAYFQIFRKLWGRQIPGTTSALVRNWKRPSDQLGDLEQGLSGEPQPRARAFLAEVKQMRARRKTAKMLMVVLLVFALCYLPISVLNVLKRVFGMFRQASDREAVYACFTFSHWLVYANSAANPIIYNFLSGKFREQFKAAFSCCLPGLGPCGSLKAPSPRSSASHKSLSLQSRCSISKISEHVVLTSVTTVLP
Description: Fluorescence-based cell-based high throughput dose response assay for antagonists of the orexin 1 receptor (OX1R; HCRTR1). [Related pubchem assays (depositor defined):AID434989, AID435008, AID463079, AID485270, AID492963, AID492964, AID492965, AID493232, AID504717, AID504718]. It is filed as functional.

The target in assay [10] is T3, Orexin receptor type 2 (Homo sapiens, UniProt O43614).
T3 sequence (O43614 whole entry): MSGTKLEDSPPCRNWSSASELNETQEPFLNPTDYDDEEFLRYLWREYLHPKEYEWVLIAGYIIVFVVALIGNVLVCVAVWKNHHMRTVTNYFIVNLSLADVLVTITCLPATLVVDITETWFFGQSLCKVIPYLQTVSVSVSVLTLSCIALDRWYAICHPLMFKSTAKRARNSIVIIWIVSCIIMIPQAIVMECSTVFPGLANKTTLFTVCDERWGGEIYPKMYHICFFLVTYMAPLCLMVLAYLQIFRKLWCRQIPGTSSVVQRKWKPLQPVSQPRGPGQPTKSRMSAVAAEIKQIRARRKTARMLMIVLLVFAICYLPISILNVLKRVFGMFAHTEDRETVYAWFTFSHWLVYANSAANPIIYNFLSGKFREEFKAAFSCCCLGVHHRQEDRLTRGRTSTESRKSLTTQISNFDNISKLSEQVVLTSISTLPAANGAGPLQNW
Description: Counterscreen assay for antagonists of the orexin 1 receptor (OX1R; HCRTR1): Homogeneous Time Resolved Fluorescence (HTRF)-based cell-based dose response assay for antagonists of the orexin 2 receptor (OX2R; HCRTR2), run by assay provider. It is filed as functional.

In assay [11] the test system is CHO-K1. The assay is described as follows: Counterscreen for antagonists of the orexin 1 receptor (OX1R; HCRTR1): Homogeneous time resolved fluorescence (HTRF)-based cell-based dose response assay to identify antagonists of the parental CHO-K1 cell line. [Related pubchem assays (depositor defined):AID434989, AID435008, AID463079, AID485270, AID492963, AID492964, AID492965, AID493232, AID504699, AID504701]. The note with it: Cricetulus griseus. The format is functional.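 Further: potency for inhibition of ATP-stimulated IP1 production as antagonists.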

The nature of assay [12]: Counterscreen for antagonists of the orexin 1 receptor (OX1R; HCRTR1): Fluorescence-based cell-based high throughput dose response assay to identify antagonists of the parental CHO cell line. [Related pubchem assays (depositor defined):AID434989, AID435008, AID463079, AID485270, AID492963, AID492964, AID492965, AID493232, AID504699, AID504701]. The format is functional.

In assay [13] the target is T2, Orexin/Hypocretin receptor type 1. Description: Homogeneous Time Resolved Fluorescence (HTRF)-based cell-based high throughput dose response assay for antagonists of the orexin 1 receptor (OX1R; HCRTR1). [Related pubchem assays (depositor defined):AID434989, AID435008, AID463079, AID485270, AID492963, AID492964, AID492965, AID493232, AID504717, AID504718]. It is filed as functional.

In assay [14] the target is T3, Orexin receptor type 2. The assay is described as follows: Counterscreen assay for antagonists of the orexin 1 receptor (OX1R; HCRTR1): Fluorescence-based cell-based dose response assay for antagonists of the orexin 2 receptor (OX2R; HCRTR2), run by assay provider. It is filed as functional.
Assay [15] has as its target Kallikrein-7 (Homo sapiens, UniProt P49862). Description: Fluorescence Intensity-based biochemical primary high throughput dose response assay to identify activators of kallikrein-7 (K7) zymogen.
The target of assay [16] is NAD-dependent protein deacylase sirtuin-5, mitochondrial (Homo sapiens, UniProt Q9NXA8). Description: SIRT5 desuccinylase inhibitors, dose response, biochemical, fluorescence imaging, cherry-pick, set 5 (AID 720591).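 Further: desuccinylation of succinyl peptide AMC substrate read as fluorescence after trypsin release; potency of inhibitors that lower fluorescence and may act on trypsin instead.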

Molecules are shown by their SMILES. Activity calls are given as the source filed them. Where a SMILES comes first, the peptide text is derived from it. Bridges are numbered along the chain shown (N, C = ends). [ ]: non-standard residue; d: D form. The star is where a group is joined. bishTyr = N[C@@H](CCCc1ccc(O)cc1)C(=O)O; Tigloyl = C/C=C(\C)C(=O)*; Dhb = C/C=C(\N)C(=O)O

One may read the IC50 as the concentration at which inhibition is half-maximal. By AC50 is commonly meant the concentration giving half of the maximal activity seen.

Oxysterols receptor LXR-beta, sequence (P55055 whole entry, the tested form may be a part): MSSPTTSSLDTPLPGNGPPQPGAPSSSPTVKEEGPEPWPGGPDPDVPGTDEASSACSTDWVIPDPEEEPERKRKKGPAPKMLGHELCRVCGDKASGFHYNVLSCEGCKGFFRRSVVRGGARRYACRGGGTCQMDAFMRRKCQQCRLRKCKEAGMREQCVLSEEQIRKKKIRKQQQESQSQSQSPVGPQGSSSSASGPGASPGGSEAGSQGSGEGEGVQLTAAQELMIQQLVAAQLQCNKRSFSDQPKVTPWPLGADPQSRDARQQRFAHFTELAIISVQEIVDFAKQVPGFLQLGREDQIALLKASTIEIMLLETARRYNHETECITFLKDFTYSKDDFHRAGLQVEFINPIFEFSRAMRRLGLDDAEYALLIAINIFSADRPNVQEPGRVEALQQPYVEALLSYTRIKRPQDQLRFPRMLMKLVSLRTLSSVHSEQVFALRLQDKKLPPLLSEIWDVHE
NAD-dependent protein deacylase sirtuin-5, mitochondrial, sequence (Q9NXA8 whole entry): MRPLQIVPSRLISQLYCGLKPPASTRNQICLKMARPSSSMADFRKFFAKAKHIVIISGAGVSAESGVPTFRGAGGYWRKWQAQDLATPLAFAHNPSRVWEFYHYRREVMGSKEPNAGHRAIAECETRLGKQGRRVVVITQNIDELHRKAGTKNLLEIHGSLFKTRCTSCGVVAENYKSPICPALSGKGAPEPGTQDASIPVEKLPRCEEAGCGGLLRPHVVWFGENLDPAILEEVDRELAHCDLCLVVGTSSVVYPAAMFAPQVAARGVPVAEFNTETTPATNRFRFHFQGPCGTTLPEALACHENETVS
Kallikrein-7, sequence (P49862 whole entry): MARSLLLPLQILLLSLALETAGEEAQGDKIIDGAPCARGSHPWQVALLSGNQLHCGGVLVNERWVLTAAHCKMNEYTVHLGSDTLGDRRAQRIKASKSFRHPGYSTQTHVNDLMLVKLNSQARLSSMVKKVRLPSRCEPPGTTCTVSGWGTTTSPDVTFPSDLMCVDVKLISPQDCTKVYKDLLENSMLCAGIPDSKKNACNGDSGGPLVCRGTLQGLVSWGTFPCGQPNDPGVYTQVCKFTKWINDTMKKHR

Regarding `COCCNC(=O)Cn1nc(-c2ccc(Cl)cc2)c2ccccc2c1=O`, the IC50 in assay [1] was > 67.5 µM (inactive). In assay [2], the EC50 is > 67.5 µM (inactive).

For `CC1CCCN(S(=O)(=O)c2ccc(C(=O)Nc3nnc(C4=COCCO4)o3)cc2)C1` (stereo unspecified), the EC50 is > 150 µM (not active) in assay [3], 98.4 µM (active) in [7] and 4.77 µM (active) in assay [8]. The figures for the AC50 in assay [4], in [5] and in [6] were 27.6 µM (active), 101 µM (active) and > 52 µM (inactive), respectively.

Turning to `O=C(OC1CCOC1=O)c1ccc(-c2nc3ccccc3s2)s1` (stereo unspecified), the half-inhibitory concentration (IC50) in [9] was 9.49 µM (active); in assay [10], 11.4 µM (inactive); in [11], 29.9 µM (inactive); in [12] it was > 49.8 µM (inactive); in [13], 1.98 µM (active); in assay [14], > 88.8 µM (inactive). Moreover, the EC50 in assay [15] was > 69.5 µM (inactive).

For `C/C=C1\NC(=O)[C@H](C)NC(=O)[C@@H](NC(=O)[C@H](Cc2ccc(O)cc2)NC(=O)[C@@H](NC(=O)/C(C)=C/C)C(C)C)[C@@H](C)OC(=O)[C@H](CCCc2ccc(O)cc2)NC(=O)[C@@H](CCC(=O)O)NC1=O` (Tigloyl-VYTA[Dhb][dE][bishTyr]; ester 3-C), the AC50 in [16] is 12.6 µM (active).
